Test results taken from paper PMC8162746 (Cancer chemotherapy and pharmacology, 2021).
Where “and” joins values, the source holds several entries; their conditions need not be identical. Equal entries are not always repeated. Entries after “also recorded” stand apart in the source; their conditions may differ. Where two headings read alike, the source gives them in different places.

Tests used:
[1] = system: patients with primary CNS and advanced solid tumors; test: Phase I dose-escalation trial of oral AR-42: safety and tolerability; format: in vivo
[2] = system: primary CNS and advanced solid tumors; test: Phase I trial: response evaluation; format: in vivo, human
[3] = Plasma pharmacokinetics, LC-MS/MS, non-compartmental analysis; format: in vivo, human; details: for AUC / Cmax: oral; for AUC: Median AUC; for Cmax: Median Cmax
[4] = cited from earlier work
[5] = system: Burkitt lymphoma mouse models; details: cited from earlier work
[6] = system: xenograft and allograft schwannoma; details: cited from earlier work
[7] = system: schwannoma and meningioma cell lines; details: cited from earlier work
[8] = system: patients with multiple myeloma and T- and B-cell lymphomas; details: cited from earlier work
[9] = 17 patients evaluable for toxicity
[10] = human, plasma, patients without grade 3 or 4 toxicity

CC(C)[C@H](C(=O)Nc1ccc(C(=O)NO)cc1)c1ccccc1 [AR-42]
Treatment-related deaths ([1]; 17 patients): no treatment-related deaths
Grade 3 TRAE anemia [1, 9]: 2 n
Grade 3 TRAE anorexia [1, 9]: 1 n
Grade 3 TRAE hematuria [1, 9]: 1 n
Grade 3 TRAE hypophosphatemia [1, 9]: 3 n
Grade 3 TRAE lymphopenia [1, 9]: 3 n
Grade 3 TRAE nausea [1, 9]: 2 n
Grade 3 TRAE thrombocytopenia [1, 9]: 5 n
Grade 3 TRAE venous thromboembolism [1, 9]: 1 n
Grade 3 TRAE weight loss [1, 9]: 1 n
Cardiac toxicity observed (QTc prolongation) ([1]; 17 patients, event at 30 mg): one patient with a grade 1 QTc prolongation; also recorded: one patient who experienced a grade 1 QTc prolongation
Anemia, treatment-related adverse event, All grades ([1]; N=17, 30-80 mg): 10 n (%) and 10 (58.8%) n (%)
Anemia, treatment-related adverse event, Grade 1–2 ([1]; N=17, 30-80 mg): 8 (47.1%) n (%)
Anemia, treatment-related adverse event, Grade 3–4 ([1]; N=17, 30-80 mg): 2 (11.8%) n (%)
Anorexia, treatment-related adverse event, All grades ([1]; N=17, 30-80 mg): 5 (29.4%) n (%)
Anorexia, treatment-related adverse event, Grade 1–2 ([1]; N=17, 30-80 mg): 4 (23.5%) n (%)
Anorexia, treatment-related adverse event, Grade 3–4 ([1]; N=17, 30-80 mg): 1 (5.9%) n (%)
Constipation, treatment-related adverse event, All grades ([1]; N=17, 30-80 mg): 4 (23.5%) n (%)
Constipation, treatment-related adverse event, Grade 1–2 ([1]; N=17, 30-80 mg): 4 (23.5%) n (%)
Cough, treatment-related adverse event, All grades ([1]; N=17, 30-80 mg): 2 (11.8%) n (%)
Cough, treatment-related adverse event, Grade 1–2 ([1]; N=17, 30-80 mg): 2 (11.8%) n (%)
Dehydration, treatment-related adverse event, All grades ([1]; N=17, 30-80 mg): 2 (11.8%) n (%)
Dehydration, treatment-related adverse event, Grade 1–2 ([1]; N=17, 30-80 mg): 2 (11.8%) n (%)
Diarrhea, treatment-related adverse event, All grades ([1]; N=17, 30-80 mg): 6 n (%) and 6 (35.3%) n (%)
Diarrhea, treatment-related adverse event, Grade 1–2 ([1]; N=17, 30-80 mg): 6 (35.3%) n (%)
Dizziness, treatment-related adverse event, All grades ([1]; N=17, 30-80 mg): 4 (23.5%) n (%)
Dizziness, treatment-related adverse event, Grade 1–2 ([1]; N=17, 30-80 mg): 4 (23.5%) n (%)
Dry mouth, treatment-related adverse event, All grades ([1]; N=17, 30-80 mg): 3 (17.6%) n (%)
Dry mouth, treatment-related adverse event, Grade 1–2 ([1]; N=17, 30-80 mg): 3 (17.6%) n (%)
Dysgeusia, treatment-related adverse event, All grades ([1]; N=17, 30-80 mg): 3 (17.6%) n (%)
Dysgeusia, treatment-related adverse event, Grade 1–2 ([1]; N=17, 30-80 mg): 3 (17.6%) n (%)
Elevated alkaline phosphatase, treatment-related adverse event, All grades ([1]; N=17, 30-80 mg): 4 (23.5%) n (%)
Elevated alkaline phosphatase, treatment-related adverse event, Grade 1–2 ([1]; N=17, 30-80 mg): 4 (23.5%) n (%)
Elevated creatinine, treatment-related adverse event, All grades ([1]; N=17, 30-80 mg): 8 n (%) and 8 (47.1%) n (%)
Elevated creatinine, treatment-related adverse event, Grade 1–2 ([1]; N=17, 30-80 mg): 8 (47.1%) n (%)
Fatigue, treatment-related adverse event, All grades ([1]; N=17, 30-80 mg): 11 (64.7%) n (%)
Fatigue, treatment-related adverse event, Grade 1–2 ([1]; N=17, 30-80 mg): 11 (64.7%) n (%)
Headache, treatment-related adverse event, All grades ([1]; N=17, 30-80 mg): 3 (17.6%) n (%)
Headache, treatment-related adverse event, Grade 1–2 ([1]; N=17, 30-80 mg): 3 (17.6%) n (%)
Hematuria, treatment-related adverse event, All grades ([1]; N=17, 30-80 mg): 1 (5.9%) n (%)
Hematuria, treatment-related adverse event, Grade 3–4 ([1]; N=17, 30-80 mg): 1 (5.9%) n (%)
Hypermagnesemia, treatment-related adverse event, All grades ([1]; N=17, 30-80 mg): 2 (11.8%) n (%)
Hypermagnesemia, treatment-related adverse event, Grade 1–2 ([1]; N=17, 30-80 mg): 2 (11.8%) n (%)
Hypernatremia, treatment-related adverse event, All grades ([1]; N=17, 30-80 mg): 2 (11.8%) n (%)
Hypernatremia, treatment-related adverse event, Grade 1–2 ([1]; N=17, 30-80 mg): 2 (11.8%) n (%)
Hypersomnia, treatment-related adverse event, All grades ([1]; N=17, 30-80 mg): 2 (11.8%) n (%)
Hypersomnia, treatment-related adverse event, Grade 1–2 ([1]; N=17, 30-80 mg): 2 (11.8%) n (%)
Hypoalbuminemia, treatment-related adverse event, All grades ([1]; N=17, 30-80 mg): 5 (29.4%) n (%)
Hypoalbuminemia, treatment-related adverse event, Grade 1–2 ([1]; N=17, 30-80 mg): 5 (29.4%) n (%)
Hyponatremia, treatment-related adverse event, All grades ([1]; N=17, 30-80 mg): 3 (17.6%) n (%)
Hyponatremia, treatment-related adverse event, Grade 1–2 ([1]; N=17, 30-80 mg): 3 (17.6%) n (%)
Hypophosphatemia, treatment-related adverse event, All grades ([1]; N=17, 30-80 mg): 7 n (%) and 7 (41.2%) n (%)
Hypophosphatemia, treatment-related adverse event, Grade 1–2 ([1]; N=17, 30-80 mg): 4 (23.5%) n (%)
Hypophosphatemia, treatment-related adverse event, Grade 3–4 ([1]; N=17, 30-80 mg): 3 (17.6%) n (%)
Impaired concentration, treatment-related adverse event, All grades ([1]; N=17, 30-80 mg): 3 (17.6%) n (%)
Impaired concentration, treatment-related adverse event, Grade 1–2 ([1]; N=17, 30-80 mg): 3 (17.6%) n (%)
Leukopenia, treatment-related adverse event, All grades ([1]; N=17, 30-80 mg): 8 n (%) and 8 (47.1%) n (%)
Leukopenia, treatment-related adverse event, Grade 1–2 ([1]; N=17, 30-80 mg): 8 (47.1%) n (%)
Limb edema, treatment-related adverse event, All grades ([1]; N=17, 30-80 mg): 2 (11.8%) n (%)
Limb edema, treatment-related adverse event, Grade 1–2 ([1]; N=17, 30-80 mg): 2 (11.8%) n (%)
Lymphopenia, treatment-related adverse event, All grades ([1]; N=17, 30-80 mg): 7 n (%) and 7 (41.2%) n (%)
Lymphopenia, treatment-related adverse event, Grade 1–2 ([1]; N=17, 30-80 mg): 4 (23.5%) n (%)
Lymphopenia, treatment-related adverse event, Grade 3–4 ([1]; N=17, 30-80 mg): 3 (17.6%) n (%)
Myalgia, treatment-related adverse event, All grades ([1]; N=17, 30-80 mg): 4 (23.5%) n (%)
Myalgia, treatment-related adverse event, Grade 1–2 ([1]; N=17, 30-80 mg): 4 (23.5%) n (%)
Nausea, treatment-related adverse event, All grades ([1]; N=17, 30-80 mg): 10 n (%) and 10 (58.8%) n (%)
Nausea, treatment-related adverse event, Grade 1–2 ([1]; N=17, 30-80 mg): 8 (47.1%) n (%)
Nausea, treatment-related adverse event, Grade 3–4 ([1]; N=17, 30-80 mg): 2 (11.8%) n (%)
Neutropenia, treatment-related adverse event, All grades ([1]; N=17, 30-80 mg): 7 n (%) and 7 (41.2%) n (%)
Neutropenia, treatment-related adverse event, Grade 1–2 ([1]; N=17, 30-80 mg): 7 (41.2%) n (%)
Psychiatric disorder, treatment-related adverse event, All grades ([1]; N=17, 30-80 mg): 1 (5.9%) n (%)
Psychiatric disorder, treatment-related adverse event, Grade 3–4 ([1]; N=17, 30-80 mg): 1 (5.9%) n (%)
Thrombocytopenia, treatment-related adverse event, All grades ([1]; N=17, 30-80 mg): 13 (76.5%) n (%)
Thrombocytopenia, treatment-related adverse event, Grade 1–2 ([1]; N=17, 30-80 mg): 8 (47.1%) n (%)
Thrombocytopenia, treatment-related adverse event, Grade 3–4 ([1]; N=17, 30-80 mg): 5 (29.4%) n (%)
Thromboembolic event, treatment-related adverse event, All grades ([1]; N=17, 30-80 mg): 1 (5.9%) n (%)
Thromboembolic event, treatment-related adverse event, Grade 3–4 ([1]; N=17, 30-80 mg): 1 (5.9%) n (%)
Vomiting, treatment-related adverse event, All grades ([1]; N=17, 30-80 mg): 4 (23.5%) n (%)
Vomiting, treatment-related adverse event, Grade 1–2 ([1]; N=17, 30-80 mg): 4 (23.5%) n (%)
Weight loss, treatment-related adverse event, All grades ([1]; N=17, 30-80 mg): 3 (17.6%) n (%)
Weight loss, treatment-related adverse event, Grade 1–2 ([1]; N=17, 30-80 mg): 2 (11.8%) n (%)
Weight loss, treatment-related adverse event, Grade 3–4 ([1]; N=17, 30-80 mg): 1 (5.9%) n (%)
Only grade 4 TRAE ([1]; at the 80 mg dose): psychosis
No. of dose delays ([1]; dose level 1A, 30 mg): 0
No. of dose reductions ([1]; dose level 1A, 30 mg): 0
Description of DLT ([1]; dose level 1B, 60 mg): Thrombocytopenia (grade 3)
No. of dose delays ([1]; dose level 1B, 60 mg): 4
No. of dose reductions ([1]; dose level 1B, 60 mg): 2
No. of patients with a DLT ([1]; dose level 1B, 60 mg, 7 patients): 1
No. of dose delays ([1]; dose level 2A, 60 mg): 0
No. of dose reductions ([1]; dose level 2A, 60 mg): 0
No. of patients with a DLT ([1]; dose level 2A, 60 mg, 2 patients): 0
No. of dose delays ([1]; dose level 2B, 80 mg): 0
No. of dose reductions ([1]; dose level 2B, 80 mg): 0
No. of patients with a DLT ([1]; dose level 2B, 80 mg, 2 patients): 1
Patients who developed a grade 4 toxicity ([1]; during cycle one, N=17): 5.9%
Patients who developed at most a grade 1 toxicity ([1]; during cycle one, N=17): 23.5%
Patients who developed at most a grade 2 toxicity ([1]; during cycle one, N=17): 29.4%
Patients who developed at most a grade 3 toxicity ([1]; during cycle one, N=17): 29.4%
Patients who experienced no toxicities ([1]; during cycle one, N=17): 11.8%
No. of dose delays ([1]; expansion cohort, 60 mg): 0
No. of dose reductions ([1]; expansion cohort, 60 mg): 0
Grade 4 thrombocytopenia ([1]; in vivo): no grade 4 thrombocytopenia
Recommended phase II dose (RP2D) ([1]; oral, three times weekly, three weeks of a 28-day cycle): 60 mg
Clinically significant bleeding events ([1]; with thrombocytopenia): no clinically significant bleeding events
Stable disease ([2]; 30 mg): 1 of 3
Stable disease ([2]; 60 mg): 7 of 11
Follow up without progression ([2]; 1 of 5 patients with NF2 or meningioma): > 27 months
Best response stable disease, proportion of patients ([2]; 15 evaluable patients, 95% CI 26.6–78.7): 53%
Stable disease ([2]; all evaluable patients): 8 of 15
Median PFS ([2]; evaluable NF2 or meningioma (n=5), 60 mg, 95% CI 1.9-not reached): 9.1 months
Median PFS ([2]; non-CNS solid tumors (n=10), 95% CI 0.1–5.0): 1.7 months
Median PFS ([2]; overall cohort, 95% CI 1.2–9.1): 3.6 months
Accumulation ([3]; 3 times weekly for three weeks of a four-week cycle): did not accumulate
Cmax, AUC0–24 and AUC0–∞ between Day 1 and Day 19 ([3]; cycle 1): remained consistent
AUC ([3]; human, plasma, patients with a grade 3 or 4 toxicity during cycle 1 and 2, p=0.036): 16.4 µM·h
AUC [3, 10]: 11.3 µM·h
Cmax ([3]; human, plasma, patients with a grade 3 or 4 toxicity during cycle 1 and 2, p=0.0016): 1540 nM
Cmax [3, 10]: 1040 nM
half-life ([3]; human, plasma, po): 480 to 780 min
AUC0–24 and AUC0–∞ higher in 80 mg dose group compared to 60 mg dose group ([3]; only two patients at 80 mg): roughly 50%
Median CL/F ([3]; patients with a grade 3 or 4 toxicity during cycle 1 and 2, p=0.0745): 10.48 L/h
Median CL/F ([3]; patients without grade 3 or 4 toxicity): 15.8 L/h
Blood brain barrier penetration ([4]; mouse model): crossed the blood brain barrier
Blood brain barrier penetration ([4]; rodents): penetrates the blood brain barrier
Activity compared with vorinostat [5]: superior to that of vorinostat
Schwannoma growth [6]: suppressed peripherally implanted xenograft and allograft schwannoma growth
Proliferation of schwannoma and meningioma cell lines ([7]; cell cycle arrest at G2 and apoptosis): suppressed proliferation
AKT phosphorylation [7]: decreased AKT phosphorylation
Mean QTc change ([8]; patients with grade 1 QTc prolongation): 27.4 ms
Grade 1 QTc prolongation ([8]; phase I study in hematologic malignancies): 8 of 27
Thrombocytopenia ([8]; phase I trial in hematologic malignancies): 16 of 27
Maximum tolerated dose (MTD) ([8]; three times weekly for three weeks of a 28-day cycle): 40 mg
